Experimental findings from patent US7268128B2, “1,3,5-trisubstituted-5-phenyl and 5-pyridyl pyrazolopyrimidinone derivatives having PDE7 inhibiting action” (Ausbio Pharma Co., Ltd., priority 2001, dated 2007) are described below.

The target of this assay is T1, PDE7 (type VII phosphodiesterase) (Homo sapiens, UniProt Q13946).
T1 construct: endogenous in cells; host or cells: MOLT-4 (ATCC CRL-1582), soluble fraction, HiTrapQ anion-exchange fraction
As to the kind of experiment: PDE7 inhibiting activity (3H-cAMP hydrolysis, active fraction from MOLT-4 cells). Type of assay: biochemical. The following applies: PDE7 fraction from MOLT-4 cells, 0.064 μM cAMP, 10 μM rolipram present, 2 hours at 25° C.; read-out: IC50 values for phosphodiesterase inhibiting activities (PDE7). As to the method:
To evaluate the compounds of the present invention for the ability to suppress PDE7 (type VII phosphodiesterase), the method of Biochemical Pharmacol. 48(6), 1219-1223 (1994) was partially modified to perform the following assay:
1) PDE7 (type VII phosphodiesterase) active fraction was obtained. That is, human acute lymphoblastoid lymphoma T cell strain MOLT-4 (purchasable from ATCC under ATCC No. CRL-1582) was cultured in RPMI1640 medium containing 10% fetal bovine serum to obtain 5×10^8 MOLT4 cells. The cells were harvested by centrifugation, and suspended in 10 ml of buffer A (25 mM tris-HCl, 5 mM 2-mercaptoethanol, 2 mM benzamidine, 2 mM EDTA, 0.1 mM 4-(2-aminoethyl)benzenesulfonyl hydrochloride, pH 7=7.5). The cells were homogenized in a Polytoron homogenizer, and centrifuged (4° C., 25,000 G, 10 min). The supernatant was further ultracentrifuged (4° C., 100,000 G, 60 min), and the resulting supernatant was filtered through a 0.2 μm filter to obtain a soluble fraction.
2) HiTrapQ column (5 ml×2) equilibrated with buffer A was charged with the resulting soluble fraction. Phosphodiesterase was eluted using 300 ml of buffer A containing a linear gradient solution of 0 to 0.8M sodium chloride to collect sixty 5 ml fractions. Each fraction was tested for cAMP metabolizing phosphodiesterase activity.
3) The test compounds at desired concentrations were each reacted for 2 hours at 25° C. in a reactant mixture containing 20 mM tris-HCl (pH 7.5), 1 mM MgCl2, 100 μM EDTA, 330 μg/ml bovine serum albumin, 4 μg/ml 5′-nucleotidase, 0.1 μCi^3H-cAMP (0.064 μM cAMP), 10 μM rolipram, and the type VII phosphodiesterase stored solution. QAE-Sephadex suspended in 10 mM HEPES-Na (pH 7.0) was added to the reaction mixture, and the mixture was allowed to stand for 5 minutes. Then, the supernatant was recovered, and QAE-Sephadex was further added, followed by allowing the mixture to stand for 5 minutes. Then, the resulting supernatant was measure for radioactivity.
4) IC50, as the concentration of the test compound that inhibited 50% of the metabolic activity of PDE7, was calculated for each of the compounds.

T1 sequence (Q13946 whole entry): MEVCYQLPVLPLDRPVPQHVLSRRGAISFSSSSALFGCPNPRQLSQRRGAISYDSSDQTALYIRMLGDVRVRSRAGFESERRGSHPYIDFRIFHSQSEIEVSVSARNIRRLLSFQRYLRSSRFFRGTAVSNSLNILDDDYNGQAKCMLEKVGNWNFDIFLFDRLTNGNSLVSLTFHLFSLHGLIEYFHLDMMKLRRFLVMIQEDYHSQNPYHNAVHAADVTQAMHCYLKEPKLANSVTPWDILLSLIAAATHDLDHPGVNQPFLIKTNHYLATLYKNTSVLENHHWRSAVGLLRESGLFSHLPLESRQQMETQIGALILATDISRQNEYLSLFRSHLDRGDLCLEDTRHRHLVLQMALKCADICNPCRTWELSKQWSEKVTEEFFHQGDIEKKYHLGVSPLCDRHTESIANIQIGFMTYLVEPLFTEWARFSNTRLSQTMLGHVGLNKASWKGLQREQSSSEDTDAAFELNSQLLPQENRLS

For `COc1cc(N)ccc1-c1nc2c(c(C3CCCCC3)nn2C)c(=O)[nH]1` [Example 44, 6-(4-Amino-2-methoxyphenyl)-3-cyclohexyl-1-methyl-1,5-dihydro-4H-pyrazolo[3,4-d]pyrimidin-4-one], the IC50 was at most 10 nM.
The figure for `COc1cc(NC(C)=O)ccc1-c1nc2c(c(C3CCCCC3)nn2C)c(=O)[nH]1` [Example 45, N-[4-(3-cyclohexyl-1-methyl-4-oxo-4,5-dihydro-1H-pyrazolo[3,4-d]pyrimidin-6-yl)-3-methoxyphenyl]acetamide] is at most 1000 nM.
The figure for `COCC(=O)Nc1ccc(-c2nc3c(c(C4CCCCC4)nn3C)c(=O)[nH]2)c(OC)c1` [Example 46, N-[4-(3-cyclohexyl-1-methyl-4-oxo-4,5-dihydro-1H-pyrazolo[3,4-d]pyrimidin-6-yl)-3-methoxyphenyl]-2-methoxyacetamide] is at most 10 nM; for `CNc1ccc(-c2nc3c(c(C4CCCCC4)nn3C)c(=O)[nH]2)c(OC)c1` [Example 47, 3-Cyclohexyl-6-[2-methoxy-4-(methylamino)phenyl]-1-methyl-1,5-dihydro-4H-pyrazolo[3,4-d]pyrimidin-4-one] it is at most 10 nM.
In the case of `COc1cc(S(=O)(=O)N2CCN(C)CC2)ccc1-c1nc2c(c(C3CCCCC3)nn2C)c(=O)[nH]1` [Example 50, 3-Cyclohexyl-6-{2-methoxy-4-[(4-methyl-1-piperazinyl)sulfonyl]phenyl}-1-methyl-1,5-dihydro-4H-pyrazolo[3,4-d]pyrimidin-4-one monochloride], the IC50 is at most 1000 nM.
In the case of `COc1cc(S(=O)(=O)N2CCOCC2)ccc1-c1nc2c(c(C3CCCCC3)nn2C)c(=O)[nH]1` [Example 51, 3-Cyclohexyl-6-[2-methoxy-4-(4-morpholinylsulfonyl)phenyl]-1-methyl-1,5-dihydro-4H-pyrazolo[3,4-d]pyrimidin-4-one] it was at most 10 nM.
Take `COc1cc(S(=O)(=O)N2CCC(O)CC2)ccc1-c1nc2c(c(C3CCCCC3)nn2C)c(=O)[nH]1` [Example 52, 3-Cyclohexyl-6-{4-[(4-hydroxy-1-piperidinyl)sulfonyl]-2-methoxyphenyl}-1-methyl-1,5-dihydro-4H-pyrazolo[3,4-d]pyrimidin-4-one]: the IC50 is at most 10 nM.
The figure for `COc1cc(S(=O)(=O)N2CCC(C(=O)O)CC2)ccc1-c1nc2c(c(C3CCCCC3)nn2C)c(=O)[nH]1` [Example 54, 1-{[4-(3-Cyclohexyl-1-methyl-4-oxo-4,5-dihydro-1H-pyrazolo[3,4-d]pyrimidin-6-yl)-3-methoxyphenyl]sulfonyl}-4-piperidinecarboxylic acid] is at most 1000 nM; for `COc1cc(S(=O)(=O)NCCN(C)C)ccc1-c1nc2c(c(C3CCCCC3)nn2C)c(=O)[nH]1` [Example 56, 4-(3-Cyclohexyl-1-methyl-4-oxo-4,5-dihydro-1H-pyrazolo[3,4-d]pyrimidin-6-yl)-N-[2-(dimethylamino)ethyl]-3-methoxybenzenesulfonamide monochloride] it is at most 1000 nM.
The figure for `COCCNS(=O)(=O)c1ccc(-c2nc3c(c(C4CCCCC4)nn3C)c(=O)[nH]2)c(OC)c1` [Example 57, 4-(3-Cyclohexyl-1-methyl-4-oxo-4,5-dihydro-1H-pyrazolo[3,4-d]pyrimidin-6-yl)-3-methoxy-N-(2-methoxyethyl) benzenesulfonamide] is at most 1000 nM; for `COc1cc(S(=O)(=O)NCCO)ccc1-c1nc2c(c(C3CCCCC3)nn2C)c(=O)[nH]1` [Example 58, 4-(3-Cyclohexyl-1-methyl-4-oxo-4,5-dihydro-1H-pyrazolo[3,4-d]pyrimidin-6-yl)-N-(2-hydroxyethyl)-3-methoxybenzenesulfonamide] it is at most 1000 nM; for `COc1cc(N2CCOCC2)ccc1-c1nc2c(c(C3CCCCC3)nn2C)c(=O)[nH]1` [Example 59, 3-Cyclohexyl-6-[2-methoxy-4-(4-morpholinyl)phenyl]-1-methyl-1,5-dihydro-4H-pyrazolo[3,4-d]pyrimidin-4-one] it is at most 1000 nM.
As for `COc1cc(N2CCNCC2)ccc1-c1nc2c(c(C3CCCCC3)nn2C)c(=O)[nH]1` [Example 60, 3-Cyclohexyl-6-[2-methoxy-4-(1-piperazinyl)phenyl]-1-methyl-1,5-dihydro-4H-pyrazolo[3,4-d]pyrimidin-4-one], the IC50 is at most 10 nM.
In the case of `COc1cc(N2CCC(OC)CC2)ccc1-c1nc2c(c(C3CCCCC3)nn2C)c(=O)[nH]1` [Example 62, 3-Cyclohexyl-6-[2-methoxy-4-(4-methoxy-1-piperidinyl)phenyl]-1-methyl-1,5-dihydro-4H-pyrazolo[3,4-d]pyrimidin-4-one monomethanesulfonate] it was at most 10 nM; in that of `COc1cc(N2CCN(C)CC2)ccc1-c1nc2c(c(C3CCCCCC3)nn2C)c(=O)[nH]1` [Example 64, 3-Cycloheptyl-6-[2-methoxy-4-(4-methyl-1-piperazinyl)phenyl]-1-methyl-1,5-dihydro-4H-pyrazolo[3,4-d]pyrimidin-4-one], at most 1000 nM; in that of `COc1cc(C(=O)O)ccc1-c1nc2c(c(C3CCCCC3)nn2C)c(=O)[nH]1` [Example 65, 4-(3-Cyclohexyl-1-methyl-4-oxo-4,5-dihydro-1H-pyrazolo[3,4-d]pyrimidin-6-yl)-3-methoxybenzoic acid], at most 1000 nM.
Take `COc1cc(C(=O)N2CCN(C)CC2)ccc1-c1nc2c(c(C3CCCCC3)nn2C)c(=O)[nH]1` [Example 67, 3-Cyclohexyl-6-{2-methoxy-4-[(4-methyl-1-piperazinyl)carbonyl]phenyl}-1-methyl-1,5-dihydro-4H-pyrazolo[3,4-d]pyrimidin-4-one monomethanesulfonate]: the IC50 was at most 1000 nM.
The figure for `COc1cc(C(=O)N2CCOCC2)ccc1-c1nc2c(c(C3CCCCC3)nn2C)c(=O)[nH]1` [Example 68, 3-Cyclohexyl-6-[2-methoxy-4-(4-morpholinylcarbonyl)phenyl]-1-methyl-1,5-dihydro-4H-pyrazolo[3,4-d]pyrimidin-4-one] is at most 1000 nM; for `COc1cc(C(=O)N2CCC(O)CC2)ccc1-c1nc2c(c(C3CCCCC3)nn2C)c(=O)[nH]1` [Example 69, 3-Cyclohexyl-6-{4-[(4-hydroxy-1-piperidinyl)carbonyl]-2-methoxyphenyl}-1-methyl-1,5-dihydro-4H-pyrazolo[3,4-d]pyrimidin-4-one] it is at most 1000 nM.
In the case of `COc1cc(C(=O)N2CCC(OC)CC2)ccc1-c1nc2c(c(C3CCCCC3)nn2C)c(=O)[nH]1` [Example 70, 3-Cyclohexyl-6-{2-methoxy-4-[(4-methoxy-1-piperidinyl)carbonyl]phenyl}-1-methyl-1,5-dihydro-4H-pyrazolo[3,4-d]pyrimidin-4-one] it was at most 1000 nM.
The figure for `COc1cc(C(=O)NCC(=O)O)ccc1-c1nc2c(c(C3CCCCC3)nn2C)c(=O)[nH]1` [Example 72, {[4-(3-Cyclohexyl-1-methyl-4-oxo-4,5-dihydro-1H-pyrazolo[3,4-d]pyrimidin-6-yl)-3-methoxybenzoyl]amino}acetic acid] is at most 1000 nM; for `COCCN(C)c1ccc(-c2nc3c(c(C4CCCCC4)nn3C)c(=O)[nH]2)c(OC)c1` [Example 73, 3-Cyclohexyl-6-{2-methoxy-4-[(2-methoxyethyl)(methyl)amino]phenyl}-1-methyl-1,5-dihydro-4H-pyrazolo[3,4-d]pyrimidin-4-one] it is at most 10 nM.

The term IC50 denotes the point on the concentration scale where inhibition reaches its midpoint.
